Assay [1] is described as follows: Survival (longevity) of old C57 Black mice over 70-day treatment. The following applies: old 16-month mice. The class given is in vivo. An excerpt:
This study was designed to examine the in vivo effect of daily administration of a representative peptide compound, PEP-1, to reverse age-related declines in spontaneous behavioral arousal as measured by effect on locomotor activity and longevity of “old” adult individuals. In this study, C57 Black mice were divided into the following treatment groups (n=10 per group): • Group 1: Young, 4-month old mice, untreated • Group 2: Old, 16-month old mice, untreated • Group 3: Old, 16-month old mice treated daily by oral gavage with 0.025 mg/kg of PEP-1
Group 4: Old, 16-month old mice treated daily by oral gavage with 0.075 mg/kg of PEP-1 • Group 5: Old, 16-month old mice treated daily by oral gavage with 0.25 mg/kg of PEP-1 • Group 6: Old, 16-month old mice treated daily by oral gavage with 0.75 mg/kg of PEP-1 • Group 7: Old, 16-month old mice treated daily by oral gavage with 2.5 mg/kg of PEP-1
At the end of a 70-day treatment period, all of the young, untreated mice (Group 1) were alive (i.e., to an age of 6.5 months), but 3 of the 10 untreated old mice (Group 2) had died. Also, 2 animals in each of Groups 3 and 4 died during this same period.

Assay [2] concerns SOD. The assay is described as follows: SOD level in brain of old C57 Black mice, 30 days daily oral gavage. The class given is in vivo. Particulars: 18-month old mice. The protocol: As a further examination of the dose-response effect on upregulating SOD in “old” adult C57 Black mice, young and old animals were divided into the following treatment groups (n=3): • Animals 1-3: Young, 4-month old mice, untreated • Animals 4-6: Old, 18-month old mice, untreated • Animals 7-9: Old, 18-month old mice treated daily by oral gavage 0.33 mg/kg of PEP-1 • Animals 10-1 2: Old, 18-month old mice treated daily by oral gavage 3.3 mg/kg of PEP-1
At the end of 30 days, all animals were sacrificed and their brains were harvested. SOD level was analyzed by Western immunoblot. A SOD standard (“M”) was also run alongside the samples. The SOD levels were quantitated by densitometry measurements of the immunoblot.

Another assay concerns CAT. The assay is described as follows: In vivo CAT upregulation in rat brain and heart after iv injection (Western immunoblot). Further details: species or system Sprague-Dawley rats. The following applies: 1.2 mg/kg iv, 6 hours post injection. The protocol:
(§1) In vivo experiments were carried out in Sprague-Dawley rats (300-325 g) with solutions of peptide compounds PEP-1 and PEP-3. The animals were injected intravenously (iv) via the tail vein with a peptide compound. Each animal received one injection of peptide compound in normal saline at total dose equivalent of 1.2 or 2.4 mg peptide compound/kg body weight. The animals were sacrificed by decapitation at 6 hours post injection and dissected to isolate brain and heart organs, which were frozen at −70° C. for subsequent analysis by Western immunoblots.
(§2) Each tissue was thawed and homogenized in a Down's homogenizer using ten volumes of homogenizer buffer (see, Adams et al., […], 77: 221-233 (2000); buffer as described in Adams et al., J. Leukoc. Biol., 62: 865-875 […]) to obtain a crude cytoplasmic fraction. The tissue homogenates were centrifuged (14,000×g for 5 minutes at 4° C.) to yield the supernatant purified cytoplasmic protein fractions for Western immunoblot analysis as described in Adams et al. (J. Cell. Biochem., 77: 221-233 (2000)). A 10 μg sample of each protein fraction was then separated by SDS polyacrylamide gel electrophoresis (SDS-PAGE) and analyzed for SOD and CAT content by Western blot assay as above.
(§3) Controls for measurement of unstimulated levels of SOD were obtained from two vehicle-only (i.e., no peptide compound), injected rats that were sacrificed at 6 hours post injection. Both had essentially the same unstimulated level of SOD. Standard quantities of each cytoplasmic fraction (10 μg) were loaded on a lane of a gel for electrophoretic separation and Western immunoblot analysis (Adams et al., J. Cell. Biochem., 77: 221-233 (2000)). The stained gels were photographed and scanned by laser densitometry to quantify intensities in comparison to enzyme levels for control vehicle treated rats.
Background: A western blot detects proteins with antibodies after separation by electrophoresis.

Assay [3] relates to SOD. The assay is described as follows: SOD level in brain of old C57 Black mice, 14 days oral gavage on various schedules. In kind it is in vivo. Particulars: 18-month old mice. The protocol:
Adult 18-month old C57 Black mice (“old mice”) were treated with 0.25 mg/kg of PEP-1 by oral gavage for a period of 14 days. The animals belonged to the following 5 treatment groups (n=3 per group): • Group 1: Control, untreated • Group 2: Treatment once per week • Group 3: Treatment twice per week • Group 4: Treatment every other day • Group 5: Daily treatment
At the end of 14 days, all animals were sacrificed and their brains were harvested and the SOD level was analyzed by Western immunoblot as described above. A SOD standard (“M”) was also run alongside the samples. The SOD levels were quantitated by densitometry measurements of the blot.

Assay [4] is described as follows: Locomotor activity test (spontaneous behavioral arousal) in old C57 Black mice. In kind it is in vivo. On the procedure:
Six weeks after assignment of the doses, surviving animals were examined in a standard locomotor activity test used to detect evidence of a reversal of age-related declines in spontaneous behavioral arousal (Forster et al., 1996; Dubey et al., Arch. Biochem. Biophys., 333: 189-197 (1996)). Arousal levels were measured using a Digiscan apparatus (Omnitech, model RXYZCM, Omnitech Electronics, Columbus, Ohio, USA). Each mouse was placed in a clear acrylic chamber (40.5 cm×40.5 cm×30.5 cm) for a […] session. The acrylic chamber was placed in a metal frame lined with arrays of photocells. A wooden cabinet with sheets of insulation enclosed the acrylic chamber and the metal frame. Fans provided an 80-db ambient noise level within the chamber. Movements of the mouse within the horizontal plane interrupted the photobeams, which were automatically recorded by a computer within 1-minute time samples. The measure used in this study was the average horizontal photobeam interruptions per minute, over a 16-minute testing session (horizontal counts/min).
The locomotor activity test was performed on blinded Groups 1, 2, 3, 4, 5, and 6, (young untreated control, old untreated control, old treated with PEP-1 at 0.025 mg/kg 0.075 mg/kg, 0.25 mg/kg, and 0.75 mg/kg, respectively) six weeks after assignment of the doses. A significant difference between the young and old untreated control groups was found (p<0.05), verifying previous findings of the age-associated decrease in spontaneous behavioral arousal.

The test system of assay [5] is SOD. Put plainly: In vivo SOD upregulation in rat brain and heart after iv injection (Western immunoblot). Further details: species or system Sprague-Dawley rats. The following applies: 1.2 mg/kg iv, 6 hours post injection. On the procedure: as §1, §2, §3
In another assay the test system is SOD-1. Put plainly: PEP-2-dependent upregulation of SOD-1 in rat cortical cell cultures (Western immunoblot, densitometry). The class given is cell-based. Particulars: 5 hours, rat brain cortical cells, vs vehicle control. On the procedure: Primary cortical cultures were obtained by growing newborn rat brain cortical cells in Delbecco's modified Eagle medium supplemented with 100 units/ml of penicillin G, 100 μg/ml of streptomycin, and 10% fetal calf serum. The cells were isolated from the E-21 cortex of rat brain, plated at a density of 1×10^5 per ml and grown to confluence within four to five days in an atmosphere containing air and 5% CO2 at 37° C. as described in Cornell-Bell et al., Science, 247: 470473 (1990) and Cell Calcium, 12: 185-204 (1991). Cultures were grown in 20 ml flasks as a monolayer and then exposed to various concentrations of peptide for studies of the effects of PEP-2 on upregulation of the gene for SOD. Cultures of the rat brain cortical cells were incubated with 1 ng/ml, 10 ng/ml, and 100 ng/ml of peptide compound PEP-2 for durations of 5 hours. Control cultures were treated in the same manner, but were not incubated with PEP-2.
Cytoplasmic proteins were isolated according to published methods (Adams et al., J. Leukoc. Biol. 62: 865-873 (1997)). The cell cultures were washed once in phosphate buffer saline (PBS) containing 20 mM EDTA and then suspended in 250 μl of freshly prepared lysis buffer (20 mM Hepes, pH 7.9, 10 mM KCl, 300 mM NaCl, 1 mM MgCl2, 0.1% Triton X-100 nonionic detergent, 20% glycerol, 0.5 mM dithiothreitol (DTT), freshly supplemented with inhibitors as described in Adams et al., J. Biol. Chem., 77: 221-233 (2000)). The suspensions were then incubated for at least 10 minutes on ice to lyse cells and then centrifuged (14,000×g for 5 minutes at 4° C.) to pellet cell debris. The supernatant cytoplasmic fractions were removed and stored as aliquots at −80° C. for analysis. […]
The cytoplasmic proteins were separated by SDS-PAGE using 5 μg/lane on the gels for analysis by Western immunoblots. […] SOD expression was detected in the Western blots using anti-SOD rabbit polyclonal antibody (Rockland, Inc., Gilbertville, Pa.). The Western blots were also analyzed by laser densitometry to quantify SOD protein upregulation. […]

“And” between values parts separate entries of the source, which are not always exact repeats. Equal values may be shown once. No end group written: not given here.

[Ac] Asp Gly Glu Ala (Ac-DGEA) [PEP-1]: the “animals that died during 70-day treatment period” value in assay [1] (0.025 mg/kg daily oral gavage, n=10 (Group 3)) was 2 animals; in assay [1] (0.075 mg/kg daily oral gavage, n=10 (Group 4)), 2 animals. In addition, the “survival over 70-day treatment period” value was “all of the old mice treated with PEP-1 survived” in assay [1] (0.25 mg/kg daily oral gavage, n=10 (Group 5)); “all of the old mice treated with PEP-1 survived” in assay [1] (0.75 mg/kg daily oral gavage, n=10 (Group 6)); “all of the old mice treated with PEP-1 survived” in assay [1] (2.5 mg/kg daily oral gavage, n=10 (Group 7)). Also, the “increase in SOD level compared to untreated old control” value with SOD [2] (0.33 mg/kg oral daily) is on record as 2.9 fold. Moreover, the “level of SOD expression in brain tissue compared to untreated old control” value in the assay with SOD [2] (3.3 mg/kg oral daily) stood at 4.8 fold. The SOD-related breakdown fragments result in the assay with SOD [2] (brain, 0.33 or 3.3 mg/kg oral daily) is recorded as “no change”. For the same substance, the “CAT (Fold increase)” value in the assay with CAT (rat brain) came to 1.0 fold; in the assay on CAT (rat heart), 1.1 fold. For the same substance, the “SOD level elevation compared to control group” value in the assay with SOD [3] (0.25 mg/kg oral gavage daily) and in the assay on SOD [3] (0.25 mg/kg oral gavage every other day) was “over 4.5 fold” in each case. Besides, in the assay with SOD [3] (0.25 mg/kg oral gavage twice per week), the “increase in SOD level compared to control group” value was found to be 2.3 fold. Besides, the “horizontal locomotor activity (horizontal counts/min)” value was “failed to differ significantly from the old controls” in assay [4] (0.025 mg/kg daily oral, six weeks (Group 3)); “higher than that of the old controls” in assay [4] (0.075 mg/kg daily oral, six weeks (Group 4)); “higher than that of the old controls” in assay [4] (0.25 mg/kg daily oral, six weeks (Group 5)); “higher than that of the old controls” in assay [4] (0.75 mg/kg daily oral, six weeks (Group 6)). The “SOD (Fold increase)” value in the assay on SOD [5] (rat brain) and in the assay on SOD [5] (rat heart) was 1.0 fold in each case.
Take “[Ac] Asp Gly Leu Glu Ala (Ac-DGLEA) [PEP-3]”: the “CAT (Fold increase)” value in the assay on CAT (rat brain) and in the assay with CAT (rat heart) was 1.0 fold in each case. The “SOD (Fold increase)” value in the assay on SOD [5] (rat brain) was 1.0 fold; in the assay on SOD [5] (rat heart), 1.2 fold.
In the case of “[Ac] Asp Gly Glu Ala Leu (Ac-DGEAL) [PEP-2]”, the “Fold-Increase in SOD Expression” value in the assay on SOD-1 (1 ng/ml) was 2 fold and 1.8 fold; with SOD-1 (10 ng/ml), 1.9 fold; with SOD-1 (100 ng/ml) it was 2.1 fold.

(Values after patent US20050130902A1, “Peptide compounds for counteracting reactive oxygen species and free radicals” (priority 2001, published 2005).)
